Experimental data as given in patent publication US12139520B2 (priority 2020, dated 2024).
Numbered stars: 1 amine (or outer) side, 2 acyl side, 3 side chain; on linkers, the order of the positions; unused ones are H or OH. Bridge positions count the residues as written; N and C are the ends. Square brackets hold non-standard residues; d marks the D form. Peptide text beside a SMILES is read from it. * marks the point of attachment. C20 diacid = O=C(O)CCCCCCCCCCCCCCCCCCC(=O)*; γGlu = O=C(O)[C@H](CCC(=O)[*:2])N[*:1]; Hyp = O=C(O)[C@@H]1C[C@@H](O)CN1

Columns and labels:
hAM1 receptor = hAM1 receptor (Homo sapiens, UniProt O60895+Q16602); experiment: cAMP assay for in vitro receptor activation, hAM1-R; assay type: cell-based
Method in brief: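 Read-out is intracellular cAMP as a measure of receptor activation. Cells stably overexpressing hAM1 were subcloned to a monoclonal line, then thawed and seeded at 8000 cells/well in DPBS with 0.05% casein and the phosphodiesterase inhibitor IBMX at 0.5 mM.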

[1] = Chronic diet-induced obesity (DIO) study in rats; assay type: in vivo, rat; conditions: 10 nmol/kg SC once daily for 28 days
Excerpt: General Protocols for Chronic Diet-Induced Obesity (DIO) Study
Sprague-Dawley rats (Taconic, Denmark) arrived at the age of 5 weeks. After one week of acclimation, they were evenly grouped based on their baseline body weight and offered ad libitum access a two-choice diet consisting of chow pellet (Altromin #1324, Brogaarden, Lynge, Denmark) and a high palatable high sugar/fat diet (1:1:1 mixture of Nutella (Ferrero, Alba, Italy), peanut butter (PCD, Rotterdam, Netherlands) and powdered standard chow (Altromin #1324, Brogaarden, Lynge, Denmark); 29.3% fat, 33.2% carbohydrate, and 18% protein) for up to 36 weeks. The rats were pair-housed throughout the study under controlled environmental conditions (12-hour light/dark cycle, lights off at 15:00; 22±1° C.; 50±10% relative humidity). Body weight, food and water intake were monitored daily during the entire period of the study. One day before the experiment, the rats were randomized according to body weight into experimental groups (n=9-10), which received compound or vehicle SC. QD (once daily) for 28 days.

[2] = Acute food intake study in lean rats; assay type: in vivo, rat; conditions: 10 nmol/kg, single SC injection, lean healthy rats
Method: General Protocols for Acute Food Intake Study
The effect on cumulative food intake was measured in male Sprague Dawley rats (6 weeks of age, Taconic, Denmark) following a single dose using a fully automated food intake monitoring system (HM-2; MBRose ApS, Faaborg, Denmark), allowing for advanced synchronous real-time monitoring of food intake behaviour of individual animals. The animals were housed in groups of 4 in a light-, temperature-, and humidity-controlled room (a 12/12 LD cycle, lights on at 02:00 AM; 22±2° C.; 50% relative humidity). The mice had ad libitum access to regular chow diet (Altromin 1324, Brogaarden A/S, Lynge, Denmark) and domestic quality tap water. Mice arrived at day 7, and a minimum of 5 days of habituation to the system was allowed prior to beginning of the study. During these days, the animals were handled daily to accustom them to the experimental paradigm. On the day of dosing, the animals were randomized into groups according to body weight. Animals were fasted for four hours prior to dosing. Animals were dosed SC 30 or 180 min prior to lights out, and food intake data were collected automatically for a total of 48 h post-dosing with automatic food recordings every 5 min.

hAMY3 receptor = molecular target: T1, hAMY3 receptor (Homo sapiens, UniProt O60896+P30988); experiment: cAMP assay for in vitro receptor activation, hAMY3-R; assay type: cell-based
T1 sequence (P30988 25-474): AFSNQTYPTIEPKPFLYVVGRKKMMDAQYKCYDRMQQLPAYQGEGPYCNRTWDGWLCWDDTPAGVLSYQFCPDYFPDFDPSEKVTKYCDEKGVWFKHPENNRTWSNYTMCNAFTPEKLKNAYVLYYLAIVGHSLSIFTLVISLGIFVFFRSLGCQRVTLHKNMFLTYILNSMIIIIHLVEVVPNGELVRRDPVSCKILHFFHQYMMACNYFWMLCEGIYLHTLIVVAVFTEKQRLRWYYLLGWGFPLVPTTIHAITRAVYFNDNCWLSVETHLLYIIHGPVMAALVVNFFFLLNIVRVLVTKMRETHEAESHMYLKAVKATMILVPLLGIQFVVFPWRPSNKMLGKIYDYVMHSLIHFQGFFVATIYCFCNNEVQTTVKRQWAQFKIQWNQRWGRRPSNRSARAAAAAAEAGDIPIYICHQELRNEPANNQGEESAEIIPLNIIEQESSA
T1 sequence (O60896 24-148 partner): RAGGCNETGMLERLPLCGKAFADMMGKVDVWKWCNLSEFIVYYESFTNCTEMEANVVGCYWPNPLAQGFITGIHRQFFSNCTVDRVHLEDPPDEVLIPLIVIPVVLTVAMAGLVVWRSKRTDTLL
Method in brief: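 Thawed cells from a sub-cloned monoclonal hAMY3-overexpressing line are plated in DPBS containing 0.05% casein and 0.5 mM IBMX. Test compounds are added immediately at graded doses for 30 min at room temperature. Reagents for cAMP detection are then added, and TR-FRET is recorded after one hour.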

Sequence of hAM1 receptor (Q16602 23-461): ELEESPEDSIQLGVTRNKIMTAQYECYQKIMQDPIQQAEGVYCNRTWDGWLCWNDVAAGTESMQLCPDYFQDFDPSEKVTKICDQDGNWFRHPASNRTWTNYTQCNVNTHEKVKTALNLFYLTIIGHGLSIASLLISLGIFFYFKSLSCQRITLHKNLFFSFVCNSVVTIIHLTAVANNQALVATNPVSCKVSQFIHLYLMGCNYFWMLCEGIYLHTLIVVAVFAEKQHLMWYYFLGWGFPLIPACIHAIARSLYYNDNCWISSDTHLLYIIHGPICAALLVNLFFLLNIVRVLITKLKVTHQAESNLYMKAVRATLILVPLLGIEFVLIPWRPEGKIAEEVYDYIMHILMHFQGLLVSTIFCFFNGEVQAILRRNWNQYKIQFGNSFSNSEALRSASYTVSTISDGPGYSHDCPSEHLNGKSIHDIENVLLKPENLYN
Sequence of hAM1 receptor (O60895 43-175 partner): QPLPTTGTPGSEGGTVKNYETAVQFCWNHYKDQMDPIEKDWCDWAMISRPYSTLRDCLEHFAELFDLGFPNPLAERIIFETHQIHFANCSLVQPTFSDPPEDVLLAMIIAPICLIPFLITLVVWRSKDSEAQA

CC[C@H](C)[C@H](NC(=O)[C@H](CCC(N)=O)NC(=O)[C@H](CCC(=O)O)NC(=O)[C@H](C)NC(=O)[C@H](CC(C)C)NC(=O)[C@H](CCCNC(=N)N)NC(=O)[C@H](CCC(N)=O)NC(=O)[C@@H](NC(=O)[C@@H](NC(=O)[C@@H]1CSSC[C@H](NC(=O)[C@H](CCCCN)NC(=O)CC[C@H](NC(=O)CCCCCCCCCCCCCCCCCCC(=O)O)C(=O)O)C(=O)N[C@@H](CC(N)=O)C(=O)N[C@@H]([C@@H](C)O)C(=O)N[C@@H](C)C(=O)N[C@@H]([C@@H](C)O)C(=O)N1)[C@@H](C)O)C(C)C)C(=O)N[C@@H](C)C(=O)N[C@@H](CCC(N)=O)C(=O)N[C@@H](Cc1ccccc1)C(=O)N[C@H](C(=O)N[C@@H](CC(=O)O)C(=O)N[C@@H](CCCCN)C(=O)N[C@@H](CC(=O)O)C(=O)N[C@@H](CCCCN)C(=O)N[C@@H](CC(=O)O)C(=O)N[C@@H](CC(N)=O)C(=O)N[C@H](C(=O)N[C@@H](C)C(=O)N1CCC[C@H]1C(=O)N1CCC[C@H]1C(=O)N[C@H](C(=O)N[C@@H](CC(N)=O)C(=O)N[C@H](C(=O)NCC(=O)N[C@@H](CO)C(=O)N[C@@H](CC(N)=O)C(=O)NCC(=O)N1C[C@H](O)C[C@H]1C(N)=O)C(C)C)[C@@H](C)O)C(C)C)[C@@H](C)O [compound 78] ({C20 diacid-γGlu}-KCNTATCTVQRLAEQIAQFTDKDKDNVAPPTNVGSNG[Hyp]-NH2; disulfide 2-7)
EC50 (hAM1 receptor): > 5000 nM
body weight day 28, % to vehicle [1]: 88.53%
Average body weight day 28 (gram) ([1]; P < 0.001 vs vehicle): 687 gram
cumulative food intake, % to vehicle [2]: 33.66%
Average cumulative food intake ([2]; up to 48 h, P < 0.001 vs vehicle): 13.7 g
EC50 (hAMY3 receptor): 0.014 nM
